Source: patent US9918916B2, “Active ingredient comprising a mixture of unsaturated dicarboxylic fatty acids, compositions comprising said ingredient and cosmetic or dermatological uses” (SEDERMA, priority 2014, dated 2018)

Key:
Format in all cases: cell-based
hyaluronic acid = assay: Synthesis of hyaluronic acid by human keratinocytes; conditions: 1 μm
Description: Human keratinocytes are cultured for 24 h. The cells are contacted with the products to be tested or their excipient for 3 days. The culture supernatants are recovered and a dosage of the amount of hyaluronic acid is achieved. Retinoic acid is used as a positive control. Quantification of cells present on the layer is carried out with the DNA dye (Hoechst 33258), so as to adjust the dosages to the number of cells.

G3PDH = G3PDH activity on human adipocytes; conditions: 10 μm
Description: In this perspective, in vitro tests aiming to show an increase in adipocyte differentiation (with glycerol-3-phosphate dehydrogenase or G3PDH as the key enzyme of this differentiation) on pre-adipocyte cultures were implemented. Other in vitro assays seek to show slower lipolysis on adipocyte cultures to validate the effectiveness of these compounds. Human pre-adipocytes are seeded and induced to differentiate with a specific mixture of inducers (without indomethacine*) in the presence or absence (negative control) of the products to be tested. After 10 days, the cultures are stopped and the residual […] activity is measured by spectrophotometry on a cellular lysate. […] Results

normal human melanocytes = assay: Inhibition of melanin synthesis on human melanocytes; conditions: 0.01%
Description: Normal human melanocytes are cultured in their maintenance medium and then contacted with the products to be tested in the test medium for 10 days. After the contact, melanins are extracted from the cells and assayed by spectrophotometry (490 nm). An estimate of cell number is performed after cultivation using a protein assay by the BCA method. Melanin concentrations are normalized by the sample protein content.

## CC1=C(/C=C/C(C)=C/C=C/C(C)=C/C(=O)O)C(C)(C)CCC1 [Retinoic Acid]
Hyaluronic acid
  stimulation of hyaluronic acid synthesis vs. control (positive control): +106%

## CCc1ccc(CCOc2ccc(CC3SC(=O)NC3=O)cc2)nc1 (stereo not drawn) [Pioglytazone]
G3PDH
  stimulation of G3PDH activity vs. control (positive control): +712%

## OC[C@H]1O[C@@H](Oc2ccc(O)cc2)[C@H](O)[C@@H](O)[C@@H]1O [arbutine]
Normal human melanocytes
  inhibition compared to the control (melanin, positive reference): 33%
